# Laboratory results as given in BigSolDB 2.1.
smiles,measurement,setting,value
Nc1ccc(S(=O)(=O)Nc2ncccn2)cc1,solubility (mole fraction),"in acetone, 294.15 K",5.96e-05
same,solubility (mole fraction),"in acetone, 298.15 K",7.34e-05
same,solubility (mole fraction),"in acetone, 303.15 K",9.17e-05
same,solubility (mole fraction),"in acetone, 308.15 K",0.000106
same,solubility (mole fraction),"in acetone, 313.15 K",0.000115
same,solubility (mole fraction),"in acetone, 318.15 K",0.00012
same,solubility (mole fraction),"in chloroform, 294.15 K",5.47e-06
same,solubility (mole fraction),"in chloroform, 298.15 K",9.26e-06
same,solubility (mole fraction),"in chloroform, 303.15 K",1.54e-05
same,solubility (mole fraction),"in chloroform, 308.15 K",2.15e-05
same,solubility (mole fraction),"in chloroform, 313.15 K",2.57e-05
same,solubility (mole fraction),"in chloroform, 318.15 K",2.71e-05
same,solubility (mole fraction),"in ethanol, 294.15 K",3.8e-05
same,solubility (mole fraction),"in ethanol, 298.15 K",4.8e-05
same,solubility (mole fraction),"in ethanol, 303.15 K",6.01e-05
same,solubility (mole fraction),"in ethanol, 308.15 K",7e-05
same,solubility (mole fraction),"in ethanol, 313.15 K",7.56e-05
same,solubility (mole fraction),"in ethanol, 318.15 K",7.68e-05
same,solubility (mole fraction),"in isopropanol, 294.15 K",6.53e-05
same,solubility (mole fraction),"in isopropanol, 298.15 K",8.18e-05
same,solubility (mole fraction),"in isopropanol, 303.15 K",0.000103
same,solubility (mole fraction),"in isopropanol, 308.15 K",0.000123
same,solubility (mole fraction),"in isopropanol, 313.15 K",0.000134
same,solubility (mole fraction),"in isopropanol, 318.15 K",0.000143
same,solubility (mole fraction),"in methanol, 294.15 K",0.000265
same,solubility (mole fraction),"in methanol, 298.15 K",0.000283
same,solubility (mole fraction),"in methanol, 303.15 K",0.000311
same,solubility (mole fraction),"in methanol, 308.15 K",0.000343
same,solubility (mole fraction),"in methanol, 313.15 K",0.000377
same,solubility (mole fraction),"in methanol, 318.15 K",0.000409
same,solubility (mole fraction),"in n-propanol, 294.15 K",9.66e-05
same,solubility (mole fraction),"in n-propanol, 298.15 K",0.000124
same,solubility (mole fraction),"in n-propanol, 303.15 K",0.000164
same,solubility (mole fraction),"in n-propanol, 308.15 K",0.000208
same,solubility (mole fraction),"in n-propanol, 313.15 K",0.000245
same,solubility (mole fraction),"in n-propanol, 318.15 K",0.000279
